What was measured:
[1] = biological target: Serotonin N-acetyltransferase (Rattus norvegicus) (UniProt Q64666); assay: Activity of AANAT assessed as conversion of bis-pivaloyloxymethylene-tryptamine-phosphopantetheine to tryptamine phosphopantetheine in rat pinealocytes at […]; format: cell-based; settings: TDE = time-dependent effect
[2] = Inhibition of norepinephrine-stimulated melatonin production assessed per 10^5 cells in rat pinealocytes at 10 uM by radioimmunoassay; format: functional
[3] = biological target: Serotonin N-acetyltransferase (Rattus norvegicus) (UniProt Q64666); assay: Inhibition of norepinephrine-stimulated AANAT activity assessed per 10^5 cells in rat pinealocytes at 10 uM; format: cell-based
[4] = biological target: Serotonin N-acetyltransferase (Rattus norvegicus) (UniProt Q64666); assay: Activity of AANAT assessed as conversion of bis-pivaloyloxymethylene-tryptamine-phosphopantetheine to tryptamine phosphopantetheine in rat pinealocytes after 60 mins; format: cell-based
[5] = Inhibition of norepinephrine-stimulated melatonin production assessed per 10^5 cells in rat pinealocytes at 50 uM by radioimmunoassay; format: functional
[6] = biological target: Serotonin N-acetyltransferase (Rattus norvegicus) (UniProt Q64666); assay: Inhibition of norepinephrine-stimulated AANAT activity assessed per 10^5 cells in rat pinealocytes at 50 uM; format: cell-based

Chain of Serotonin N-acetyltransferase (Rattus norvegicus) (Q64666 whole entry): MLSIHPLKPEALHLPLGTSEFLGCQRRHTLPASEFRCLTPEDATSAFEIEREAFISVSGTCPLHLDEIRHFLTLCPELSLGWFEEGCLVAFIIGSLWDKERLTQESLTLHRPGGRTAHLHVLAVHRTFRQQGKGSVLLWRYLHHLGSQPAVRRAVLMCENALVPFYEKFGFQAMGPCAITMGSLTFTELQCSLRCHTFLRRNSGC

Activity [1]: tde
Activity [3]: 2.2 nmol/h
Activity [4]: 40%
Activity [6]: 1.6 nmol/h
Structure (SMILES): CC(C)(C)C(=O)OCOP(=O)(OCOC(=O)C(C)(C)C)OCC(C)(C)[C@@H](O)C(=O)NCCC(=O)NCCSCC(=O)NCCc1c[nH]c2ccccc12
Inhibition [2]: 9 pmol
Inhibition [5]: 5.7 pmol

— ChEMBL document CHEMBL1142910, “Enzymatic and cellular study of a serotonin N-acetyltransferase phosphopantetheine-based prodrug” (2007)
